Here are results for 13 compounds from PubChem BioAssay (NCI).

Some test systems named below: NCI-H226 lung; M14 melanoma; SR leukemia; SF-295 CNS; RXF 393 renal; SNB-19 CNS; SK-MEL-28 melanoma; SN12C renal; RPMI-8226 leukemia.
Holding throughout (assay): DTP human tumour cell line panel, 48 h

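96-well plates; 48 h exposure; 5 concentrations. Endpoints by linear interpolation between flanking doses. Not reached: highest tested concentration assigned. TGI is the concentration that stops growth completely.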 Where a SMILES comes first, the peptide text is derived from it. The star is where a group is joined. Cbz = O=C(OCc1ccccc1)*; Boc = CC(C)(C)OC(=O)*; OSu = O=C1CCC(=O)N1O*; Bn = c1ccc(C*)cc1

What is called TGI is the concentration giving total growth inhibition. A high value points to lower sensitivity of the cells. Turning to `COC(=O)CC1CC2(C(=O)OC)c3[nH]c4ccccc4c3CCN2C1=O` (configuration not stated), the TGI in the experiment with NCI-H226 lung, with M14 melanoma, with SR leukemia, in the experiment with SF-295 CNS, with RXF 393 renal and in the experiment with SNB-19 CNS was over 100 µM each time. The TGI in the experiment with SK-MEL-28 melanoma and with SN12C renal was over 100 µM throughout.
On to `O=C1/C(=C/c2ccc(Cl)cc2)Oc2ccccc21`, for which the TGI is 68 µM in the experiment with NCI-H226 lung; over 100 µM in the experiment with M14 melanoma; over 100 µM in the experiment with SR leukemia; over 100 µM with SF-295 CNS; 54.8 µM with RXF 393 renal; over 100 µM in the experiment with SNB-19 CNS. Moreover, the TGI in the experiment on SK-MEL-28 melanoma, in the experiment on SN12C renal and with RPMI-8226 leukemia was over 100 µM throughout.
As to `Cc1ccc(NC(=O)C(=O)Cc2cccc[n+]2[O-])cc1C`, the TGI in the experiment on NCI-H226 lung, in the experiment with M14 melanoma, in the experiment on SR leukemia, in the experiment with SF-295 CNS, with RXF 393 renal and in the experiment with SNB-19 CNS was over 100 µM each time. Besides, the TGI in the experiment on SK-MEL-28 melanoma, with SN12C renal and in the experiment with RPMI-8226 leukemia was over 100 µM each time.
As to `CC1=CCN(c2ccccn2)OC1c1ccccc1` (configuration not stated), the TGI in the experiment on NCI-H226 lung, in the experiment with M14 melanoma, with SR leukemia, with SF-295 CNS, with RXF 393 renal and in the experiment on SNB-19 CNS was over 100 µM each time. In addition, the TGI in the experiment with SK-MEL-28 melanoma, in the experiment on SN12C renal and with RPMI-8226 leukemia was over 100 µM in each case.
Take `Cn1c(NC(=O)NC23CC4CC(CC(C4)C2)C3)nc2ccccc21`: the TGI is over 100 µM with NCI-H226 lung; over 100 µM in the experiment with M14 melanoma; over 100 µM with SR leukemia; 52.3 µM with SF-295 CNS; 57.4 µM in the experiment on RXF 393 renal; over 100 µM with SNB-19 CNS. In addition, the TGI in the experiment with SK-MEL-28 melanoma, in the experiment with SN12C renal and with RPMI-8226 leukemia was over 100 µM in each case.
Turning to `CC(C)=CC(=O)c1c(C(=O)O)nc2ccccc2[n+]1[O-]`, the TGI in the experiment with NCI-H226 lung, in the experiment with M14 melanoma, in the experiment with SR leukemia, in the experiment with SF-295 CNS, with RXF 393 renal and in the experiment on SNB-19 CNS was over 100 µM in each case. Further, the TGI in the experiment on SK-MEL-28 melanoma, in the experiment on SN12C renal and in the experiment on RPMI-8226 leukemia was over 100 µM each time.
Turning to `O=CC1=CCC2c3[nH]c4ccccc4c3CCN2C1` (configuration not stated), the TGI in the experiment on NCI-H226 lung is 385 µM; in the experiment with SR leukemia it was over 396 µM; in the experiment with SF-295 CNS it was 326 µM; with RXF 393 renal, over 396 µM; in the experiment with SNB-19 CNS, over 396 µM; in the experiment on SK-MEL-28 melanoma it was 248 µM. Moreover, the TGI with SN12C renal and in the experiment on RPMI-8226 leukemia was over 396 µM each time.
With `CCOC(=O)C1CCC(=O)N1C(=O)c1ccc(Cl)cc1` (configuration not stated), the TGI in the experiment with NCI-H226 lung, in the experiment with M14 melanoma, with SR leukemia, in the experiment with SF-295 CNS, with RXF 393 renal and with SNB-19 CNS was over 100 µM each time. Moreover, the concentration for total growth inhibition (TGI) in the experiment on SK-MEL-28 melanoma, in the experiment on SN12C renal and with RPMI-8226 leukemia was over 100 µM throughout.
With `O=c1[nH]c2ccc([N+](=O)[O-])cc2nc1/C(=N/Nc1ccccc1)C(O)c1ccco1` (configuration not stated), the TGI with NCI-H226 lung, in the experiment with M14 melanoma, in the experiment on SR leukemia, in the experiment with SF-295 CNS, in the experiment with RXF 393 renal and in the experiment with SNB-19 CNS was over 100 µM throughout. Also, the TGI with SK-MEL-28 melanoma, in the experiment on SN12C renal and in the experiment on RPMI-8226 leukemia was over 100 µM each time.
As to `CC(C)(C)OC(=O)NC(Cc1ccc(OCc2ccccc2)cc1)C(=O)NC(CCCCNC(=O)OCc1ccccc1)C(=O)NC(CCCCNC(=O)OCc1ccccc1)C(=O)ON1C(=O)CCC1=O` (configuration not stated) (Boc-Tyr(Bn)-Lys(Cbz)-Lys(Cbz)-OSu; configuration not given here), the TGI is over 100 µM in the experiment on M14 melanoma; over 100 µM in the experiment on SR leukemia; 72.1 µM with SF-295 CNS; over 100 µM with RXF 393 renal; 30.7 µM in the experiment with SNB-19 CNS; over 100 µM in the experiment on SK-MEL-28 melanoma. In the experiment on RPMI-8226 leukemia, this compound displayed a TGI of over 100 µM.
For `CN(/N=C\c1ccc2ccccc2c1)C1=NCCCN1`, the TGI is 40.4 µM with NCI-H226 lung; over 100 µM with SR leukemia; 26.8 µM in the experiment with SF-295 CNS; 35.4 µM with RXF 393 renal; 29.8 µM with SK-MEL-28 melanoma; 50.7 µM in the experiment with RPMI-8226 leukemia.
Turning to `O=C(c1ccccc1)c1cc(Cl)ccc1NCn1nnc2ccccc21`, the TGI in the experiment with NCI-H226 lung, with M14 melanoma, in the experiment with SR leukemia, in the experiment with SF-295 CNS, in the experiment on RXF 393 renal and in the experiment on SNB-19 CNS was over 100 µM throughout. Moreover, the TGI in the experiment on SN12C renal and in the experiment with RPMI-8226 leukemia was over 100 µM in each case.
Take `CCOC(=O)c1c(-c2ccccc2)c(C)cn1C`: the TGI in the experiment on NCI-H226 lung, in the experiment with M14 melanoma, in the experiment on SR leukemia, in the experiment with SF-295 CNS, with RXF 393 renal and in the experiment on SNB-19 CNS was over 10 µM in each case. The compound also came in with a TGI with SN12C renal of over 10 µM.
